The values that follow come from article PMC10391610, “Survivin prevents the polycomb repressor complex 2 from methylating histone 3 lysine 27” (iScience, 2023).

Holding throughout (type): binding
The target of test [1] is T1, survivin (Homo sapiens, UniProt O15392).
T1 construct: transferred to the survivin1-142 construct used in the present study; His8 tag (pHIS8 vector, thrombin-cleavable); made in house; host or cells: E. coli BL21(DE3) star
Briefly: Biolayer interferometry, immobilized EZH2 peptide, survivin as analyte. The method, then: EZH2_178-211 peptide from previous peptide microarray experiments were used as immobilized ligands using amine reactive second-generation biosensor (AR2G, Fortebio, Fremont, CA, USA). Ethanolamine was used to quench unbound AR2G surface to prevent non-specific interactions. The biosensor was incubated in MQ water for 15 minutes before use in the Octet instrument (Fortebio, Fremont, CA, USA) with the following settings: equilibration in water for 60 s and 1000 rpm shaking, activation in EDC/s-NHS for 300 s at 1000 rpm, peptide immobilization in immobilization buffer pH 6.0 (Fortebio) for 900 s and 1000 rpm (50 μM for the peptide), quenching with 1 M ethanolamine for 300 s and 1000 rpm, baseline measurement in survivin SEC buffer for 600 s and 1000 rpm, association with survivin (100 nM, 33.3 nM, 11.1 nM, and 3.7 nM concentrations) as the experiment analyte for 600 s and 1000 rpm, and dissociation step in survivin SEC buffer for 1200 s and 1000 rpm. The assay was performed at 30°C. The reference wells and reference biosensors were subtracted.
(§1) Δλ(t) values were converted to dimensionless quantities by dividing the wavelength shifts with 1 nm prior to the analysis. To develop the model, we tentatively assumed Langmuir’s 1:1 model.[85] The kinetic modelling was performed with the pymc3 python package[66] using a Bayesian model: p(KD,app|lower=10^−15,upper=10^−3)=1/upper−lower p(k−1|lower=10^−20,upper=10)=1/upper−lower k1=k−1/KD,app p(A|lower=10^−6,upper=10)=1/upper−lower p(ε|lower=10^−6,upper=1)=1/upper−lower p(Δλ(0)|μ=⟨Δλi⟩,σ=1/10∑(Δλi−⟨Δλi⟩)^2/n)=1/2πσe^−1/2σ(Δλ(t)−μ)^2;Δλ(0)∈[10^−20,+∞]
(§2) The association and dissociation phases were modelled simultaneously, and the probability of wavelength shift during association phase was modeled as: p(Δλ(t)|μ=Ac/KD,app+c(1−e^−(k1c+k−1)t),σ=ε)=1/2πσe^−1/2σ(Δλ(t)−μ)^2
The probability of wavelength shift during the dissociation phase was modelled as: p(Δλ(t)|μ=Δλ(0)e^−k−1t,σ=ε)=1/2πσe^−1/2σ(Δλ(t)−μ)^2, where A and k1 are the amplitude and rate constant of the exponential association process, respectively. The concentration of the analyte is c and KD,app is the apparent dissociation constant. The dissociation rate constant is marked with k-1. ε represents the standard deviation of Δλ(t) . The total amplitude of wavelength shift is the wavelength shift at the beginning of the dissociation phase ( Δλ(0) ). Its prior distribution is modeled by a truncated normal distribution with parameters based on an empirical Bayes estimate of the starting observations. The data points in the interval 0 to 1 s are represented by the index i. The residual plots from the Bayesian model used in the BLI experiment with peptide EZH2_172-211 and survivin are shown in Figure S6.

The target in test [2] is T1, survivin. The experiment in a line: Biolayer interferometry (reverse), immobilized survivin, EZH2 peptide as analyte. The settings on record: peptide 21.2 µM. The method, then:
Other phases in the reverse experiment follow the same parameters as in non-reverse experiments mentioned above.
as §1, §2
The probability of wavelength shift during the dissociation phase was modelled as: p(Δλ(t)|μ=Δλ(0)e^−k−1t,σ=ε)=1/2πσe^−1/2σ(Δλ(t)−μ)^2, where A and k1 are the amplitude and rate constant of the exponential association process, respectively. The concentration of the analyte is c and KD,app is the apparent dissociation constant. The dissociation rate constant is marked with k-1. ε represents the standard deviation of Δλ(t) . […]
(In general: BLI is a label-free optical method that tracks binding on a fibre tip over time.)

The next test addresses T2, [U-15N]-survivin (Homo sapiens, UniProt O15392).
T2 construct: transferred to the survivin1-142 construct used in the present study; His8 tag (pHIS8 vector, thrombin-cleavable); made in house; host or cells: E. coli BL21(DE3) star, M9 medium with 15NH4Cl
The experiment in a line: NMR titration of [U-15N]-survivin with PRC2-derived peptides. The method, then:
Uniformly [U] labeled [U-^15N] survivin was produced in H2O-based M9 medium[69] containing ^15NH4Cl as the sole nitrogen and in case of or [U-^15N,^13C] survivin D-(^13C)-glucose was additionally added as the sole carbon source, respectively (Sigma-Aldrich). Expression was induced with 0.5 mM IPTG and continued for 20–22 h at 15°C. Cell harvesting and subsequent purification followed the same protocol as for unlabeled survivin.
NMR measurements were performed on Bruker (Fällanden, Switzerland) AvanceIII 800 MHz spectrometers running Topspin 3.5 or 3.6, respectively, equipped with cryogenically cooled triple resonance probes. All NMR experiments were performed in NMR buffer (50 mM Tris, 150 mM NaCl, 1 mM DTT, pH 7.5) and at 298 K. The sequence-specific backbone assignment of survivin1-117 was taken from previously published assignment,[50] and transferred to the survivin1-142 construct used in the present study. Existing resonance assignments were confirmed, and additional resonances were assigned in a sequence-specific manner by the following experiments: [^1H,^15N]-TROSY HSQC,[70] BEST-TROSY-type HNCA and HNCO experiments.[71]
The peptides were synthetized and purified to 95% by Biomatik. The peptides were titrated into ^15N labelled survivin (0.3 mM). Standard 2D [^15N,^1H]-SOFAST-HMQC[72] experiments were recorded with inter-scan delays of 200 ms and 1025 x 256 complex points for the ^1H and ^15N dimensions, respectively, for the titrations of the different peptides with [U-^15N] survivin.
For the global analysis, the NMR signal strength was quantified by summing the 200 highest values in each 2D NMR spectrum to ensure that all peaks corresponding to the different amino acid residues in survivin are potentially covered. The titration curve was modelled using a Bayesian machine learning approach using the python library pymc3.[66] The logistic function was chosen due to computational convenience. The most important parameter of this function was coined “critical peptide concentration (cpc)” and its logarithm was modelled using a uniform a priori distribution between −10 and 1. p(log10cpc|lower=−10,upper=1)=1/upper−lower
The modelling errors related to the choice of function affect the analysis of different peptides similarly. Therefore, the relative magnitude of cpc in comparison is more reliable than the absolute magnitude of cpc itself. The concentration values were converted to dimensionless quantities by dividing with 1 mM and the NMR signal intensity was normalized for the concentration range studied.
A deterministic sigmoid (logistic) function was used to model signal decay as a function of peptide concentration. Additional a priori assumptions of the function parameters were the following: p(k|lower=−10,upper=10)=1/upper−lower p(L|lower=−3,upper=3)=1/upper−lower p(b|lower=−10,upper=10)=1/upper−lower
1000 posterior samples were collected in four parallel chains using the No-U-Turn sampling algorithm (NUTS) after 2000 tuning steps/chain.[83] The default sampling parameters were used except for “target accept” parameter, which was increased to 0.95. For the final analysis the 1000 samples from the four chains were merged to yield 4000 samples.

T2 sequence (O15392 whole entry): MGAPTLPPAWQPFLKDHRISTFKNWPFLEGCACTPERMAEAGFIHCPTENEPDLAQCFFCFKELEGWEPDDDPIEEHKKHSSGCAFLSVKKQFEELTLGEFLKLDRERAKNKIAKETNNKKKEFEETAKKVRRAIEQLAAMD
T1 sequence (O15392 whole entry): as above

On to “VELVNALGQYNDDDDDDDGD DPEEREEKQKDLEDHRDDKE [EZH2_172-211, PRC2-derived peptide, EZH2 residues 172–211, synthesized by Biomatik]”, for which, on survivin [1] (EZH2_172-211-coated sensors, survivin 100, 33 and 11 nM), the “BLI interaction (in words)” value is “Survivin interacted with EZH2_172-211-coated sensors at concentrations of 100, 33, and 11 nM”. The “apparent dissociation constant (in words)” value at survivin [1] (summary of posterior parameters, when the apparent dissociation constant is well defined) is “nanomolar interaction”. Further, the “A (amplitude of association)” value at survivin [1] (survivin 3.7 nM, posterior mean ± SD) stood at 0.18 ± 0.21 nm; on survivin [1] (survivin 33 nM, posterior mean, SD 1.8×10-4) it was 0.11 nm; at survivin [1] (survivin 100 nM, posterior mean, SD 1.1×10-4) it was 0.23 nm; at survivin [2] (posterior mean, SD 1.2×10-3), 0.13 nm. Also, the “k1 (association rate constant)” value on survivin [2] (posterior mean ± SD) amounted to 45 ± 0.59 M⁻¹ s⁻¹. The sequence also had a critical peptide concentration in test [U-15N]-survivin (300 μM survivin (monomer), pH 7.5, 298 K) of 2.1 µM. The “<L>” value in test [U-15N]-survivin (logistic function parameter L, posterior mean (Table S10)) is recorded as 0.68. Also, the “<b>” value in test [U-15N]-survivin (logistic function parameter b, posterior mean (Table S10)) came to 0.32. Further, the “<k>” value in test [U-15N]-survivin (logistic function parameter k, posterior mean (Table S10)) was -1.04. Besides, in test [U-15N]-survivin (new resonances at high peptide concentrations, 298 K), the “binding strength from slow exchange regime (in words)” value is recorded as “strong binding in the low nanomolar range or below”.
